The values below come from US6683079B2, “3-(amino-or aminoalkyl) pyridinone derivatives and their use for the treatment of HIV related diseases” (Centre National de la Recherche Scientifique, priority 1998, dated 2004).

For assay [1], the system named is HIV-1 strain IIIB. The experiment in a line: Retrovirucidal effect on HIV-1 strain IIIB (Table 3). As to conditions: pIC50=-log IC50, IC50 in M. It counts as cell-based. As to the method:
(§1) HIV-1 viral suspensions were obtained by coculture of MT4 cells and H9 cells chronically infected by HIV-ILai isolate. 200 μl of a cell supernatant containing viral particles (HIV-ILai: 100 TCID50) were incubated at room temperature with various concentrations of different inhibitors. After 3 hours, virions were washed through 0.02 μm anopore membrane in 1.5 mL Vectaspin tube (Whatman) for 10 minutes at 5 000 g. Each of the three subsequent washes was performed in the same conditions after the viral concentrate was refilled with 500 μL of RPMI medium. Then, the viral concentrate was readjusted to the initial volume with RPMI plus 10% foetal calf serum (FCS). The residual infectivity was assayed on P4 cells as described by CHARNEAU et al. (1994, J. Mol. Biol., 241, 651-662). Briefly, P4 cells were plated using 100 μL of DMEM medium plus 10% FCS in 96 plate multi-wells at 20×10^5 cells per mL. After overnight incubation at 37° C., the supernatant was discarded and the viral preparation (200 μL) was added. One day later the wells were washed three times in PBS. Each well was refilled with 200 μL of a reaction buffer containing 50 mM Tris-HCl pH 8.5, 100 mM 2-mercaptoethanol, 0.05% Triton X-100 and 5 mM 4-methylumbelliferyl β-D-galactopyranoside (MUG). After 3 hours at 37° C., the level of the reaction was measured in a fluorescence microplate reader.
(§2) The retrovirucidal effect of each pyridinone derivative listed in table 3 has been assayed according to the teachings of example 2, excepted that the anti-viral effect has been tested on the two following HIV-1 strains:
a) HIV-1 strain IIIB (see example 2);

In assay [2] the test system is HIV-1 strain 103 N. The experiment in a line: Retrovirucidal effect on HIV-1 strain 103 N (Table 3). It counts as cell-based. As to conditions: HIV-1 strain 103N (RT Lys-103 to Asn mutant); pIC50=-log IC50, IC50 in M. How it is done: as §1, §2
b) HIV-1 strain 103 N which is a mutant strain bearing a point mutation in the reverse transcriptase gene leading to an enzyme wherein the initial Lys-103 residue is replaced for a Asn residue.
The HIV-1 103 N strain has also been described by SAHLBERG et al.,(1998, Antiviral Res., 37 (3): ASS) and BALZARiNI et al. (1996, Antimicrobial Agents and Chemotherapy, 40 (6): 1454-1466).

As to `CCc1c(C)[nH]c(=O)c(N(C)Cc2ccccc2)c1Cc1cc(C)cc(C)c1` [Compound 67], the “HIV1 pIC50 strain IIIB” value in assay [1] came to 6.804. Moreover, the “HIV1 pIC50 strain 103N” value in assay [2] stood at 4.955.

As to `CCc1c(C)[nH]c(=O)c(NCc2cc(C)c(C)cc2OC)c1Cc1cc(C)cc(C)c1` [Compound 4], the “HIV1 pIC50 strain IIIB” value in assay [1] is 5.094. Also, the “HIV1 pIC50 strain 103N” value in assay [2] is given as less than 4. The like results for `CCc1c(C)[nH]c(=O)c(N(C)C)c1Cc1ccc2ccccc2c1` [Compound 10] were, in that order, 6.241 and 4.389.

Consider `CCc1c(C)[nH]c(=O)c(N(C)C)c1CN(C)Cc1ccccc1` [Compound 102], for which, in assay [1], the “HIV1 pIC50 strain IIIB” value came out at 4.369. In assay [2], the “HIV1 pIC50 strain 103N” value is recorded as less than 4. The like results for `CCc1c(C)[nH]c(=O)c(N2CCOCC2)c1Cc1cc(C)cc(C)c1` [Compound 36] were, in that order, 6.763 and less than 4. For `Cc1cc(C)cc(Cc2cc[nH]c(=O)c2N(C)C)c1` [Compound 16], in that order: 5.061 and 4.401. As for `CCc1c(C)[nH]c(=O)c(N)c1Cc1ccc(Cl)cc1` [Compound 54], the “HIV1 pIC50 strain IIIB” value in assay [1] was less than 4. Besides, in assay [2], the “HIV1 pIC50 strain 103N” value is on record as less than 5.

For the compound `CCc1c(C)[nH]c(=O)c(NC)c1Cc1cc(C)cc(C)c1` [Compound 46], the “HIV1 pIC50 strain IIIB” value in assay [1] was determined as 8.119. Further, the “HIV1 pIC50 strain 103N” value in assay [2] is reported as 7.034. The like results for `CCc1cccc(Cc2c(CC)c(C)[nH]c(=O)c2N)c1` [Compound 98] were, in that order, 5.358 and 4.978. With `Cc1cccc(C(=O)c2c(C)c(C)[nH]c(=O)c2N(C)C)c1` [Compound 96], the “HIV1 pIC50 strain IIIB” value in assay [1] turned out to be 7.824. Further, in assay [2], the “HIV1 pIC50 strain 103N” value stood at 6.37. Regarding `CCc1c(C)[nH]c(=O)c(N(C)C)c1CSc1cccc(C)c1` [Compound 166], the “HIV1 pIC50 strain IIIB” value in assay [1] amounted to 5.693. Moreover, the “HIV1 pIC50 strain 103N” value in assay [2] came out at 4.518.

Consider `Cc1cc(C)cc(Cc2c3c([nH]c(=O)c2N)CCCC3)c1` [Compound 172], for which the “HIV1 pIC50 strain IIIB” value in assay [1] is 6.419. For the same compound, the “HIV1 pIC50 strain 103N” value in assay [2] was 4.903. With `CCc1c(C)[nH]c(=O)c(N(C)C)c1Sc1cccc(C)c1` [Compound 160], the “HIV1 pIC50 strain IIIB” value in assay [1] amounted to 8.678. In assay [2], the “HIV1 pIC50 strain 103N” value came to 7.177. For `CCc1c(C)[nH]c(=O)c(N(C)C)c1CNc1ncccn1` [Compound 171], the “HIV1 pIC50 strain IIIB” value in assay [1] was 5.895. Besides, the “HIV1 pIC50 strain 103N” value in assay [2] stood at 4.74.

Regarding `CCc1c(C)[nH]c(=O)c(NC)c1C(=O)c1cccc(Br)c1` [Compound 179], the “HIV1 pIC50 strain IIIB” value in assay [1] came out at 8.42. Further, the “HIV1 pIC50 strain 103N” value in assay [2] came out at 7.182. The like results for `CCc1c(C)[nH]c(=S)c(N(C)C)c1C(=O)c1cc(C)cc(C)c1` [Compound 138] were, in that order, 8.215 and 7.401.

With `CCc1c(C)[nH]c(=O)c(NCC(C)C)c1Cc1cc(C)cc(C)c1` [Compound 72], the “HIV1 pIC50 strain IIIB” value in assay [1] is given as 7.079. The “HIV1 pIC50 strain 103N” value in assay [2] was less than 4. The like results for `CCc1c(C)[nH]c(=O)c(N)c1C(OC)c1cc(C)cc(C)c1` (centres unmarked) [Compound 73] were, in that order, 8.027 and 6.92. In the case of `CCc1c(C)[nH]c(=O)c(N(C)C)c1Nc1cccc(C)c1` [Compound 176], in assay [1], the “HIV1 pIC50 strain IIIB” value was found to be 8.432. For the same compound, the “HIV1 pIC50 strain 103N” value in assay [2] is given as 6.436.

Regarding `CCc1cccc(Cc2c(CC)c(C)[nH]c(=O)c2N(C)C)c1` [Compound 99], in assay [1], the “HIV1 pIC50 strain IIIB” value was determined as 8.569. Further, the “HIV1 pIC50 strain 103N” value in assay [2] came out at 6.718. As to `CCc1c(C)[nH]c(=O)c(N(C)C)c1Cc1ccc(C(F)(F)F)cc1` [Compound 53], in assay [1], the “HIV1 pIC50 strain IIIB” value came to 5.828. Further, in assay [2], the “HIV1 pIC50 strain 103N” value is less than 5. As to `CCc1c(C)[nH]c(=O)c(N(C)C)c1COc1cccc(C)c1` [Compound 162], in assay [1], the “HIV1 pIC50 strain IIIB” value is on record as 6.418. The “HIV1 pIC50 strain 103N” value in assay [2] was 5.026. For the compound `CCc1c(C)[nH]c(=O)c(NCc2ccccc2)c1Cc1cc(C)cc(C)c1` [Compound 29], in assay [1], the “HIV1 pIC50 strain IIIB” value is listed as 6.555. Moreover, in assay [2], the “HIV1 pIC50 strain 103N” value was 5.496. `CCc1c(C)[nH]c(=O)c(N(C)C(C)COC)c1Cc1cc(C)cc(C)c1` (centres unmarked) [Compound 129]: the “HIV1 pIC50 strain IIIB” value in assay [1] stood at 8.398. Further, in assay [2], the “HIV1 pIC50 strain 103N” value was determined as 7.057. `CCc1c(C)[nH]c(=O)c(N(C)C)c1Cc1ccccc1` [Compound 21]: in assay [1], the “HIV1 pIC50 strain IIIB” value is on record as 8.409. The “HIV1 pIC50 strain 103N” value in assay [2] is 6.65. Consider `CCc1c(C)[nH]c(=O)c(N)c1Cc1cc(C)cc(C)c1` [Compound 5], for which the “HIV1 pIC50 strain IIIB” value in assay [1] was 6.261. In assay [2], the “HIV1 pIC50 strain 103N” value is 5.636. Regarding `CCc1c(C)[nH]c(=O)c(N(C)C)c1Cc1cccc(C(F)(F)F)c1` [Compound 57], the “HIV1 pIC50 strain IIIB” value in assay [1] turned out to be 8.086. In assay [2], the “HIV1 pIC50 strain 103N” value was 6.414.

In the case of `CCc1c(C)[nH]c(=O)c(N)c1CNCc1cccc(C)c1` [Compound 83], the “HIV1 pIC50 strain IIIB” value in assay [1] is less than 4.033. Also, in assay [2], the “HIV1 pIC50 strain 103N” value is recorded as less than 4. The like results for `CCc1c(C)[nH]c(=O)c(N(C)CC=C(C)C)c1Cc1cccc(C)c1` [Compound 164] were, in that order, 7.818 and 6.505. For `CCc1c(C)[nH]c(=O)c(N2CCCCC2)c1Cc1cc(C)cc(C)c1` [Compound 30], in that order: 6.214 and 4.224. For `CCc1c(C)[nH]c(=O)c(N(C)C(C)C)c1Cc1cc(C)cc(C)c1` [Compound 79], in that order: 6.987 and 5.47. Regarding `CCc1c(Cc2cc(C)cc(C)c2)c(N(C)C)c(=O)n(CC)c1C` [Compound 45], the “HIV1 pIC50 strain IIIB” value in assay [1] was found to be 5.519. The “HIV1 pIC50 strain 103N” value in assay [2] is recorded as 4.095. Turning to `CCc1c(Cc2cc(C)cc(C)c2)c(N(C)C)c(=O)n(C)c1C` [Compound 11], in assay [1], the “HIV1 pIC50 strain IIIB” value came to 7.215. In addition, in assay [2], the “HIV1 pIC50 strain 103N” value is 6.094. Take `CCc1c(C)[nH]c(=O)c(N(C)C)c1CNc1ccc(C#N)cc1` [Compound 167]: in assay [1], the “HIV1 pIC50 strain IIIB” value was determined as 6.338. For the same compound, in assay [2], the “HIV1 pIC50 strain 103N” value is reported as 5.828. For `CCCN(CCC)c1c(Cc2cc(C)cc(C)c2)c(CC)c(C)[nH]c1=O` [Compound 17], in that order: 6.285 and 4.379. On to `CCOC(=O)Cn1c(C)c(CC)c(Cc2cc(C)cc(C)c2)c(N(C)C)c1=O` [Compound 23], for which, in assay [1], the “HIV1 pIC50 strain IIIB” value is 5.254. Also, the “HIV1 pIC50 strain 103N” value in assay [2] is less than 4. For `CCCc1cccc(Cc2c(CC)c(C)[nH]c(=O)c2N(C)C)c1` [Compound 104], in that order: 8 and 7.058. Consider `Cc1cccc(Cc2c(C)c(C)[nH]c(=O)c2N)c1` [Compound 85], for which, in assay [1], the “HIV1 pIC50 strain IIIB” value is 4.954. Further, the “HIV1 pIC50 strain 103N” value in assay [2] is recorded as less than 4.

As to `CCNc1c(Cc2cc(C)cc(C)c2)c(CC)c(C)[nH]c1=O` [Compound 81], in assay [1], the “HIV1 pIC50 strain IIIB” value is on record as 7.866. In assay [2], the “HIV1 pIC50 strain 103N” value is listed as 6.444. Take `CCc1c(C)[nH]c(=O)c(N(C)C)c1Cc1ccnc2ccccc12` [Compound 75]: in assay [1], the “HIV1 pIC50 strain IIIB” value was 5.252. Further, the “HIV1 pIC50 strain 103N” value in assay [2] worked out at 4.132. The like results for `CCc1c(C)[nH]c(=O)c(N(C)C)c1Cc1ccc(-c2ccccc2)cc1` [Compound 51] were, in that order, 5.384 and less than 5. With `CCc1c(C)[nH]c(=O)c(N(C)CCCCCO)c1Cc1cccc(C)c1` [Compound 154], in assay [1], the “HIV1 pIC50 strain IIIB” value is 8.009. The “HIV1 pIC50 strain 103N” value in assay [2] is given as 6.262.

`CCc1c(C)[nH]c(=O)c(N(C)C)c1C(O)c1cc(C)cc(C)c1` (centres unmarked) [Compound 48]: the “HIV1 pIC50 strain IIIB” value in assay [1] is 8. Also, the “HIV1 pIC50 strain 103N” value in assay [2] is 6.711. `CCc1c(C)[nH]c(=O)c(N)c1C(=O)c1ccc2c(c1)OCO2` [Compound 150]: the “HIV1 pIC50 strain IIIB” value in assay [1] turned out to be 4.881. Turning to `CCc1c(C)[nH]c(=O)c(N)c1Cc1ccc2c(c1)OCO2` [Compound 141], the “HIV1 pIC50 strain IIIB” value in assay [1] is given as 4.642. The same measure, in the same setting: the same measure for `CCc1c(C)[nH]c(=O)c(N)c1C(=O)Cc1cccc(C)c1` [Compound 124]: 4.389.

Regarding `CCc1c(C)[nH]c(=O)c(N(C)C)c1C(=O)c1ccc2c(c1)OCO2` [Compound 151], the “HIV1 pIC50 strain IIIB” value in assay [1] is reported as 7.845. With `CCc1c(C)[nH]c(=O)c(N(C)C)c1C(=O)c1cccc(-c2ccccc2)c1` [Compound 196], the “HIV1 pIC50 strain IIIB” value in assay [1] came to 6.411. The same measure, in the same setting: the result for `CCc1c(C)[nH]c(=O)c(N)c1Cc1ccc2c(c1)OCCO2` [Compound 134] reads 4.056.
